Test results reported in BindingDB's records for doi:10.1124/jpet.102.047092 (Case Western Reserve University, 2003).

How the values were obtained:
[1] = target: T1, Oxytocin receptor (Homo sapiens, UniProt P30559)
T1 sequence (P30559 whole entry): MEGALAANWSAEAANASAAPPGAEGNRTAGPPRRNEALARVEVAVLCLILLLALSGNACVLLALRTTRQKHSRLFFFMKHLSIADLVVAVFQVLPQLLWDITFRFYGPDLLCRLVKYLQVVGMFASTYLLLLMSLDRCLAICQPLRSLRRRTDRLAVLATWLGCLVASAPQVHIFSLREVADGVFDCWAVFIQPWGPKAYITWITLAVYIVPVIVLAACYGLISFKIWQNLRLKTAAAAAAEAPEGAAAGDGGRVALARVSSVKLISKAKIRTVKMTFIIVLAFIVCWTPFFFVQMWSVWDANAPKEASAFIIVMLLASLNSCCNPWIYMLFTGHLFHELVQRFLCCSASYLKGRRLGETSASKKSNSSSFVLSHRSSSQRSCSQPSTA

[2] = target: T2, Muscarinic acetylcholine receptor M4 (Homo sapiens, UniProt P08173)
T2 sequence (P08173 whole entry): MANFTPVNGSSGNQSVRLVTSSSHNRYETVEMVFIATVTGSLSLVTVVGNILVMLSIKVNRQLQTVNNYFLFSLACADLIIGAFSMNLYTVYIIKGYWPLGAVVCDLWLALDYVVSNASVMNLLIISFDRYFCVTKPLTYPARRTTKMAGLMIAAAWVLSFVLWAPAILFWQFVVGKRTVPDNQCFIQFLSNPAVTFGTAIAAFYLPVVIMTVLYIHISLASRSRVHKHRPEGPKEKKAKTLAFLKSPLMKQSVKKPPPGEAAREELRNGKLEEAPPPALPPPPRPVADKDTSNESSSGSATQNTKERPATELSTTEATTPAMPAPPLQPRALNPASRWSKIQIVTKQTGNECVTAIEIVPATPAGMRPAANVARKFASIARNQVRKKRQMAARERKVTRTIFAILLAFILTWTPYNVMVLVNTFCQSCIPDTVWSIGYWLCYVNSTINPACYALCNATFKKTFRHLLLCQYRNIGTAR

[3] = target: T3, Alpha-2B adrenergic receptor (Homo sapiens, UniProt P18089)
T3 sequence (P18089 whole entry): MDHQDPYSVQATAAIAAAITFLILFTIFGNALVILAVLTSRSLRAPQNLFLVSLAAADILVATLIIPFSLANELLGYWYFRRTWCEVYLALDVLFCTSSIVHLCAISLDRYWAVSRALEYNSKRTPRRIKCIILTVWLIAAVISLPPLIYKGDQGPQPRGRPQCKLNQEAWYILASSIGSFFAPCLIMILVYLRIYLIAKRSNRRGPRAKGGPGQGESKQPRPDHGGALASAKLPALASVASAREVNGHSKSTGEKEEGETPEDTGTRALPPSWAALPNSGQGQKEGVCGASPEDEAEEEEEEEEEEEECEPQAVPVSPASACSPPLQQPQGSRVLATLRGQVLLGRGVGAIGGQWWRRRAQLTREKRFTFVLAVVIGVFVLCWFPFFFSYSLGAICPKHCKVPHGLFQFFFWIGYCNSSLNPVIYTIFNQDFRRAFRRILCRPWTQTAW

[4] = target: 5-hydroxytryptamine receptor 1B (Homo sapiens, UniProt P28222)
5-hydroxytryptamine receptor 1B, sequence (P28222 whole entry): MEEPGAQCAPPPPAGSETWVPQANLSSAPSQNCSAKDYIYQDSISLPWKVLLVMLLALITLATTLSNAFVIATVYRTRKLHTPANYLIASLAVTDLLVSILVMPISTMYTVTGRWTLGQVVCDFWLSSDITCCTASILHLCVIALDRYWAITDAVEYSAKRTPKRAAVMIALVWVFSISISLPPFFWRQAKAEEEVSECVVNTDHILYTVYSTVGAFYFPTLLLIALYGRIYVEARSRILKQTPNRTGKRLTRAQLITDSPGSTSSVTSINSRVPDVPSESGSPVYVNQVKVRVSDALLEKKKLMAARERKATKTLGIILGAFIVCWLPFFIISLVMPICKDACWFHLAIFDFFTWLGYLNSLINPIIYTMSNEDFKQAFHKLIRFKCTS

[5] = target: Voltage-dependent L-type calcium channel subunit alpha-1C (Rattus norvegicus, UniProt P22002)
[6] = target: D(1A) dopamine receptor (Homo sapiens, UniProt P21728)
[7] = target: Histamine H2 receptor (Homo sapiens, UniProt P25021)
Histamine H2 receptor, sequence (P25021 whole entry): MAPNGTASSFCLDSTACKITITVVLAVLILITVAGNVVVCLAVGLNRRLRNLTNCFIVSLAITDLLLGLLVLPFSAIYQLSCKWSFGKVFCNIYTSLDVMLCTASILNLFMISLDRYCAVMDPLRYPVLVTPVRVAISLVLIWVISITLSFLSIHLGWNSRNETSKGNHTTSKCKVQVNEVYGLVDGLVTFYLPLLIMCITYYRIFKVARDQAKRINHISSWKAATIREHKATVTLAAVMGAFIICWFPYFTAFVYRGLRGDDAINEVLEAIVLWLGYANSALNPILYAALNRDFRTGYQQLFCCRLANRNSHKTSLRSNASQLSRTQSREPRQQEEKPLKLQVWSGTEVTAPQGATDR

[8] = target: Muscarinic acetylcholine receptor M3 (Homo sapiens, UniProt P20309)
Muscarinic acetylcholine receptor M3, sequence (P20309 whole entry): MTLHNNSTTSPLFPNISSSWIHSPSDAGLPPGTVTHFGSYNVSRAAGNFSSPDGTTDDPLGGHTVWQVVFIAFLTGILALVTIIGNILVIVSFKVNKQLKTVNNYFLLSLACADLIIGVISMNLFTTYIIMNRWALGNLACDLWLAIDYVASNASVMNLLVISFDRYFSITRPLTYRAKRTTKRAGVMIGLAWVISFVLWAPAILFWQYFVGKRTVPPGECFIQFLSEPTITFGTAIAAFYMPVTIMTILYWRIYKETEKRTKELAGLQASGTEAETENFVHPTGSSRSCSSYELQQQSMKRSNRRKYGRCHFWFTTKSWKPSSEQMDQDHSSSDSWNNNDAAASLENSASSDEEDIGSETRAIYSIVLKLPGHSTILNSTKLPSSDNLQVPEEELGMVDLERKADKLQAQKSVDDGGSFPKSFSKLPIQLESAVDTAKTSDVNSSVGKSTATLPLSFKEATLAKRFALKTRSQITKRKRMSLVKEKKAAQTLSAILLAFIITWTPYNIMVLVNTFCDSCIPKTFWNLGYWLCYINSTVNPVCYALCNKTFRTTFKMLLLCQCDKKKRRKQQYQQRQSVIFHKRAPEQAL

[9] = target: 5-hydroxytryptamine receptor 6 (Homo sapiens, UniProt P50406)
[10] = target: Sodium-dependent serotonin transporter (Homo sapiens, UniProt P31645)
Sodium-dependent serotonin transporter, sequence (P31645 whole entry): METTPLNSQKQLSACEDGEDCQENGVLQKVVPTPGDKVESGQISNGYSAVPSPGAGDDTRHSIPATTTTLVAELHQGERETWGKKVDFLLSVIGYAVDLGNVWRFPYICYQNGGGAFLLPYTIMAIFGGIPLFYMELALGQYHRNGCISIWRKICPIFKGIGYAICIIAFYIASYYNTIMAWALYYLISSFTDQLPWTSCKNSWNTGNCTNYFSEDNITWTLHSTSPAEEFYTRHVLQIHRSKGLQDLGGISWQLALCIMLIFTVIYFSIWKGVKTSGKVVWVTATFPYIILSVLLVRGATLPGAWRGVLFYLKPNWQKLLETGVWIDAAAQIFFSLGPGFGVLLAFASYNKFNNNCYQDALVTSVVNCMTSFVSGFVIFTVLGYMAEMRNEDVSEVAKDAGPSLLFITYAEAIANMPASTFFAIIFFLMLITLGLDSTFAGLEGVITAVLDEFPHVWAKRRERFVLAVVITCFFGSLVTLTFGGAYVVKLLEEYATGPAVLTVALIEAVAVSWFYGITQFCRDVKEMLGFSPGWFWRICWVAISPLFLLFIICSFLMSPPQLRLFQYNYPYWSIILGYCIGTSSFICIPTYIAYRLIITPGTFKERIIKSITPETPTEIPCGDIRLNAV

[11] = target: Histamine H1 receptor (Rattus norvegicus, UniProt P31390)
[12] = target: 5-hydroxytryptamine receptor 5A (Homo sapiens, UniProt P47898)
5-hydroxytryptamine receptor 5A, sequence (P47898 whole entry): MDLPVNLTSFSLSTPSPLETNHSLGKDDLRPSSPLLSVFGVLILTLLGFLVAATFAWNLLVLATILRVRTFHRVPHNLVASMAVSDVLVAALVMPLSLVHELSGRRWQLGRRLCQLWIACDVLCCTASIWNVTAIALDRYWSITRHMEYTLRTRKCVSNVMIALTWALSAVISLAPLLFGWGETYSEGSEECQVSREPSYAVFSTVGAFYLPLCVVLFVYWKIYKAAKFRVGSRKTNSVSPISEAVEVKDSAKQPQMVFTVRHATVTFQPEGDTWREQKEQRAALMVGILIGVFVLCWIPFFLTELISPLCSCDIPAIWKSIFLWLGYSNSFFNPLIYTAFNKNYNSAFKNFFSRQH

[13] = target: Beta-1 adrenergic receptor (Rattus norvegicus, UniProt P18090)
Beta-1 adrenergic receptor, sequence (P18090 whole entry): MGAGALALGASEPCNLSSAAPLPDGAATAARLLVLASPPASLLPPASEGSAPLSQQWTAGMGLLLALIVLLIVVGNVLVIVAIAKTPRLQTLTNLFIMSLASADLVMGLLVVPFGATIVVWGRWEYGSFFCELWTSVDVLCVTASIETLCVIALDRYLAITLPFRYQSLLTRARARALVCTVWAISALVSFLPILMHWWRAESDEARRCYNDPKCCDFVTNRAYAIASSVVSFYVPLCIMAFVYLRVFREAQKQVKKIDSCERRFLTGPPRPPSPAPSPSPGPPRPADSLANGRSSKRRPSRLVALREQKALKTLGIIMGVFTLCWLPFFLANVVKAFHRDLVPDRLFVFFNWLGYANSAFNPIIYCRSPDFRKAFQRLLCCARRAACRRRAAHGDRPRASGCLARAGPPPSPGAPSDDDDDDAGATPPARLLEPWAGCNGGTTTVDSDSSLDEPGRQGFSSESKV

[14] = target: D(3) dopamine receptor (Homo sapiens, UniProt P35462)
[15] = target: Histamine H1 receptor (Homo sapiens, UniProt P35367)
Histamine H1 receptor (Homo sapiens, UniProt P35367), sequence (P35367 whole entry): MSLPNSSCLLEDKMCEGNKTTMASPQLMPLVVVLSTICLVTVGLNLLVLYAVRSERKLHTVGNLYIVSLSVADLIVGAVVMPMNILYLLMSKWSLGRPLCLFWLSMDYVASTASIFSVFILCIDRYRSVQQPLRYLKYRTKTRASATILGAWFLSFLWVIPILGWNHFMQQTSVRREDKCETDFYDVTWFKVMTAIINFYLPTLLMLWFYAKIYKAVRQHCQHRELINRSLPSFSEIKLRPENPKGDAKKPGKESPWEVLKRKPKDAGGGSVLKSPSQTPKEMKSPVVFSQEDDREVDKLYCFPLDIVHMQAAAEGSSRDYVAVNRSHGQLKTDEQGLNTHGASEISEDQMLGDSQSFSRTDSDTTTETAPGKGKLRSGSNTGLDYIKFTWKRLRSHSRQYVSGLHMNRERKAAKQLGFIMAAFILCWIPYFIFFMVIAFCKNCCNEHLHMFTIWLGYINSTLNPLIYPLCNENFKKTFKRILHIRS

[16] = target: T4, D(4) dopamine receptor (Rattus norvegicus, UniProt P30729)
T4 sequence (P30729 whole entry): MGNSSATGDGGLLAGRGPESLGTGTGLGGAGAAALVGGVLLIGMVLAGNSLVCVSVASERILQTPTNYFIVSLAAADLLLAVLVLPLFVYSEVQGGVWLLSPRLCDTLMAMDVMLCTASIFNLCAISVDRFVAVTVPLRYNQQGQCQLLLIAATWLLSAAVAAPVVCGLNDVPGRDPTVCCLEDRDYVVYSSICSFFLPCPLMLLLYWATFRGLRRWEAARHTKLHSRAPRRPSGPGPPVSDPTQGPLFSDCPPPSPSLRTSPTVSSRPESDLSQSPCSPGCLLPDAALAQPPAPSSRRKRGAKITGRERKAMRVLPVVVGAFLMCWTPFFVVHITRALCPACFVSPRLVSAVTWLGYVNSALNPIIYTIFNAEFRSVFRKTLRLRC

[17] = target: Histamine H4 receptor (Homo sapiens, UniProt Q9H3N8)
[18] = target: Nischarin (Rattus norvegicus, UniProt Q4G017)
Nischarin, sequence (Q4G017 whole entry): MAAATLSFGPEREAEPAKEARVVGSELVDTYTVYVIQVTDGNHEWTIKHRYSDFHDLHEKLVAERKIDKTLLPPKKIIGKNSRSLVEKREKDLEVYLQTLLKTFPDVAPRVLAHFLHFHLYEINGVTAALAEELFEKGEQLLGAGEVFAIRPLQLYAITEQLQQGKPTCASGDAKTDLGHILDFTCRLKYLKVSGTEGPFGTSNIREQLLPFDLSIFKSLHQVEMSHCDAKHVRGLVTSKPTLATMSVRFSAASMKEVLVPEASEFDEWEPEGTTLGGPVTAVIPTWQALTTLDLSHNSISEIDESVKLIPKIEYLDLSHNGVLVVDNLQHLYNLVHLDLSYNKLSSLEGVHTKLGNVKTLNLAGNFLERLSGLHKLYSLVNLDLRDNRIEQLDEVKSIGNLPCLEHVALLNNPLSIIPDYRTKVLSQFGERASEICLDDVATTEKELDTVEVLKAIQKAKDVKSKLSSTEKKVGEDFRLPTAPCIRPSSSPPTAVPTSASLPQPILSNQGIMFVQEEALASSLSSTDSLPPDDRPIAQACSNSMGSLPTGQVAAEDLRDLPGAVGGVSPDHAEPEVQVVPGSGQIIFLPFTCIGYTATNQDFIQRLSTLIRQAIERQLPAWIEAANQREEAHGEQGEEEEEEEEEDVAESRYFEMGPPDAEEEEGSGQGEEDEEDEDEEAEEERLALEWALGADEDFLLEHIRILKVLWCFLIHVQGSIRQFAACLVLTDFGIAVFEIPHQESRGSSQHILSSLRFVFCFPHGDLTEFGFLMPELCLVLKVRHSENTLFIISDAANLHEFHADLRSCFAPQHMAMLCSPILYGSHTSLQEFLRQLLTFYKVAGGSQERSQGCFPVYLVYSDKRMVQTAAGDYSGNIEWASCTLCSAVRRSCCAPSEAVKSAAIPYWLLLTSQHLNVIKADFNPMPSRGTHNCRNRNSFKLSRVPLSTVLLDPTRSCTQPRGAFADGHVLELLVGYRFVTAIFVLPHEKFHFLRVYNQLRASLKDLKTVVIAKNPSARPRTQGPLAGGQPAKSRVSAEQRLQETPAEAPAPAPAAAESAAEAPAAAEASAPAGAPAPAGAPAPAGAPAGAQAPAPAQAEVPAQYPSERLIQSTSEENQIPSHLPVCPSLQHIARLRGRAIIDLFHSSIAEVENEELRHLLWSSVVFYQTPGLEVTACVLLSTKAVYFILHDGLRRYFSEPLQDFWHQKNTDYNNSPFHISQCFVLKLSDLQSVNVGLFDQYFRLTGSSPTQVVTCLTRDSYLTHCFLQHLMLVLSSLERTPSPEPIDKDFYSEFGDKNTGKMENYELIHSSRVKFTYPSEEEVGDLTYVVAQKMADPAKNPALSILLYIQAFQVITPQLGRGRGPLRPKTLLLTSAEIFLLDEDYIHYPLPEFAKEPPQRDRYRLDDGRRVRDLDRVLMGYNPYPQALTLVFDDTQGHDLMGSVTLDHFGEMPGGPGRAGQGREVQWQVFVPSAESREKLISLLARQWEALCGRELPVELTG

Measured: Ki

N[C@@H](CCS)C(=O)O (racemic) [CAS_778]
not listed: [18]
> 10 µM: all other assays above

N[C@@H](CCS(=O)O)C(=O)O [L-homocysteine sulfinic acid]
not listed: [10]
> 10 µM: all other assays above

NC(CS(=O)O)C(=O)O (stereo not drawn) [CAS_109]
> 10 µM: all assays above

CSCC[C@@H](N)C(=O)O [CAS_6137]
> 10 µM: all assays above

N[C@@H](CS)C(=O)O [CAS_5862]
> 10 µM: all assays above

N[C@@H](CCS(=O)(=O)O)C(=O)O (racemic)
not listed: [5] | [7] | [13] | [15] | [17] | [18]
> 10 µM: all other assays above

NC(CSSCC(N)C(=O)O)C(=O)O (stereo not drawn) [CAS_595]
> 10 µM: all assays above

N[C@@H]1CCSC1=O [D-homocysteine thiolactone]
not listed: [1] | [3] | [4] | [11] | [14]
> 10 µM: all other assays above

N[C@H](CCS(=O)(=O)O)C(=O)O [D-homocysteic acid]
> 10 µM: all assays above

N[C@H](CS(=O)(=O)O)C(=O)O [L-cysteic acid]
not listed: [3]
> 10 µM: all other assays above

N[C@H]1CCSC1=O [NSC_134505]
not listed: [1] | [4] | [11] | [14]
> 10 µM: all other assays above

N[C@H](CCS(=O)O)C(=O)O [D-homocysteine sulfinic acid]
> 10 µM: all assays above
